Patent publication US20140155362A1, “BHQ-CONJUGATES, AND RELATED COMPOUNDS, METHODS OF MAKING THE SAME, AND METHODS OF USE THEREOF” (priority 2011, published 2014)
“And” between values parts separate entries of the source, which are not always exact repeats. Identical values can stand only once. Each block holds one compound with its values, some of them ahead of it.

Experiments:
[1] = Determination of two-photon action cross-sections (δu) at 740 nm; type: physicochemical
Experimental: Determination of Two-photon Action Cross-Sections (δu).
A portion of BHQ-O-5HT was dissolved in KMOPS buffer and the concentration of the solution was found using UV-Vis absorption in conjunction with Beer's law. Aliquots (25 μL) of this solution were placed in a microcuvette (10×1×1 mm illuminated dimensions) and irradiated with a fs-pulsed and mode-locked Ti:Sapphire laser (Chameleon Ultra II, Coherent) with 740-nm light at an average power of 300 mW. Three samples were irradiated for each of the following time periods: 0, 5, 10, 20, and 40 min. The samples were compiled and analyzed by HPLC. A solution of fluorescein at pH 9.0 was prepared to act as a standard for BHQ-O-5HT because of its well-characterized 2PE cross-section (δaF=30 GM at 740 nm) and quantum yield (QF2=0.9). UV-V is absorption spectroscopy was used to correlate absorption at 488 nm to precise concentration. Aliquots (25 μL) of fluorescein solution were placed in the microcuvette and irradiated by the laser under the same conditions used for the BHQ-O-5HT solution. The fluorescence output of the solution was measured with a radiometer before and after the BHQ-O-5HT samples were irradiated and the two values were averaged. The following equation was used to calculate the two-photon action cross-section for BHQ-O-5HT:
where Np is the number of product molecules formed per second (determined by HPLC), φ is the collection efficiency of the detector (SED033 on an IL-1700, International Light) used to measure the fluorescence of fluorescein passing through the cuvette window and through a 535/545 nm bandpass filter at a right angle to the laser's beam, CF is the concentration of fluorescein, <F(t)> is the time averaged fluorescent photon flux (photons/s) of fluorescein and CS is the initial concentration of the caged compound. The measurements were compiled and the two-photon action cross-section for BHQ-O-5HT was determined to be 0.50 GM. The experiment was repeated for BHQ-N-5HT, and the two-photon action cross-section was determined to be 0.42 GM.
Determination of Two photon Action Cross-Sections (δu).
A portion of BHQ-VAA was dissolved in KMOPS buffer and the concentration of the solution was found using UV-Vis absorption in conjunction with Beer's law. Aliquots (25 μL) of this solution were placed in a microcuvette (10×1×1 mm illuminated dimensions) and irradiated with a fs-pulsed and mode-locked Ti: Sapphire laser (Chameleon Ultra II, Coherent) with 740-nm light at an average power of 300 mW. Three samples were irradiated for each of the following time periods: 0, 5, 10, 20, and 40 min. The samples were compiled and analyzed by HPLC. […] The fluorescence output of the solution was measured with a radiometer before and after the BHQ-VAA samples were irradiated and the two values were averaged. […]

[2] = Determination of absorbance maximum and molar extinction coefficient (ε) in KMOPS buffer; type: physicochemical; details: for ε (molar extinction coefficient): at λmax
Experimental: Determination of the Molar Extinction Coefficient (ε).
(§1) A weighed portion of BHQ-O-5HT was dissolved in methanol. A measured aliquot of this solution was withdrawn and placed in KMOPS buffer (3.0 mL) and mixed thoroughly to generate a 100-μM solution of BHQ-O-5HT. The absorbance A of this solution at τmax=368 nm was measured. This method was repeated twice with different masses of BHQ-O-5HT.
Determination of the Molar Extinction Coefficient (s).
as §1, with “BHQ-VAA” for “BHQ-O-5HT”, “BHQ-VAA.” for “BHQ-O-5HT.”, “λmax=368” for “τmax=368”

[3] = Determination of the dark hydrolysis rate (τdark) in KMOPS; type: physicochemical; details: for τdark (time constant for dark hydrolysis): 100 μM in KMOPS, stored in the dark
Experimental: Determination of the Dark Hydrolysis Rate (τdark).
(§2) Three 100-μM solutions of BHQ-O-5HT in KMOPS were created and stored in the dark. Aliquots (20 μL) were removed periodically from each solution and analyzed by HPLC. The percents remaining for each time point for each solution were averaged and plotted versus time. A simple single exponential decay curve provided the best fit. The time constant for dark hydrolysis (τdark) was determined to be 260 h. The experiment was repeated for BHQ-N-5HT, and the time constant for dark hydrolysis (τdark) was determined to be 300 h.
as §2, with “BHQ-VAA” for “BHQ-O-5HT”, “140” for “260”, “h.” for “h. The experiment was repeated for BHQ-N-5HT, and the time constant for dark hydrolysis (τdark) was determined to be 300 h.”

[4] = Determination of the uncaging quantum efficiency (Qu), 1-photon photolysis at 365 nm; type: physicochemical; details: for Qu (uncaging quantum efficiency): 365±15 nm, KMOPS
Experimental: Determination of the Uncaging Quantum Efficiency (Qu).
(§3) The quantum efficiency was calculated using the equation Qu=(Iσt90%)^−1, where I is the irradiation intensity in einstein·cm^−2, σ is the decadic extinction coefficient (1,000 times ε) and t90% is the time in seconds required for the conversion of 90% of the starting material to product. To find t90%, a solution of BHQ-O-5HT in KMOPS was prepared and placed in a cuvette along with a small stir bar. While stirring, the solution was irradiated with UV light from a mercury lamp (Spectroline SB-100P, Spectronics Corporation) equipped with two glass filters (CS0-52, CS7-60, Ace Glass) so that the wavelength was restricted to 365±15 nm. Periodically, 20-μL aliquots were removed and analyzed by HPLC. The time points collected were as follows: 0, 5, 10, 20, 30, 60, 90, and 120 s. Percent BHQ-O-5HT remaining was plotted verses time of photolysis. A simple single exponential decay curve provided the best fit for the data and was used to extrapolate t90%. The lamp's UV intensity I was measured using potassium ferrioxalate actinometry. Initially, 6 mM potassium ferrioxalate solution (3 mL) was irradiated with the mercury lamp for 60 s. A portion of this solution (2 mL) was combined with aqueous buffer (3 mL), 0.1% phenanthroline solution (3 mL), and 2M KF solution (1 mL) in a 25-mL volumetric flask. Deionized water was added to generate a 25 mL solution. A blank solution was also prepared using the same method, but the potassium ferrioxalate used in the blank was not irradiated. Both solutions were allowed to sit for one hour and the blank was then used as a baseline against which the absorbance of the irradiated solution was measured at 510 nm. The following equation was used to calculate lamp intensity: […]
where V3 is the volume of dilution (25 mL), V2 is the volume of irradiated potassium ferrioxalate solution taken for analysis (2 mL), ΔD510 is the absorption of the solution at 510 nm, Σ510 is the actinometry extinction coefficient (1.11×10^4 M^−1 cm^−1),)Fe is the quantum yield for production of ferrous ions from potassium ferrioxalate at 365 nm, and t represents the time of irradiation. The ΔD510 value used for calculations is the average of two measurements taken before and after irradiation of BHQ-O-5HT. Compilation of the measurements yielded an uncaging quantum efficiency Qu, of 0.30. The experiment was repeated for BHQ-N-5HT, and compilation of the measurements yielded an uncaging quantum efficiency Qu of 0.10.
as §3, with “c)” for “ε)”, “BHQ-VAA” for “BHQ-O-5HT”, “irradiated.” for “irradiated. Both solutions were allowed to sit for one hour and the blank was then used as a baseline against which the absorbance of the irradiated solution was measured at 510 nm. The following equation was used to calculate lamp intensity:”

[5] = system: ex vivo zebrafish brain (optic tectum); test: Electrophysiological recording of PTZ-induced seizure activity in ex vivo zebrafish brain; details: PTZ 15 mM-induced seizure
Experimental: BHQ-O-5HT Mediates the Light Activation of 5HT in an Ex Vivo Zebrafish Brain Preparation (FIG. 1.1).
A microelectrode inserted into the optic tectum was used to record seizure activity induced by application of pentalenetetrazole (PTZ, 15 mM). The ictal and interictal spikes can be observed at regular intervals. After 1040 s, BHQ-O-5HT (1 mM) was added. No change in the amplitude of the ictal spikes was observed. At 1640 s, the preparation was exposed to a brief (˜1 ms) flash of 365-nm light. […] Since 5HT is an inhibitor of seizures,^1,2 this is the expected result.
Procedure for electrophysiological recording in ex vivo zebrafish brain:
An adult zebrafish brain was obtained by dissection in oxygenated artificial cerebrospinal fluid (ACSF).* A sharp glass pipet microelectrode (15 MΩ impedance), loaded with ACSF, was inserted into the optic tectum. A chloride-coated silver wire (0.010 in., A-M Systems, Inc. Sequim, Wash.) reference (15 MΩ impedance) was placed contra-laterally, adjacent to the brain. Neuronal activity was recorded using an MDA-41 AC Differential Amplifier (Bak Electronics, Mount Airy, Md.) and a Tektronix DPO 3012 Digital Phosphor Oscilloscope (Beaverton, Oreg.) using MATLAB. Baseline activity was recorded for 5 min followed by introduction of PTZ (15 mM). […] The response was recorded for 30 min.

[6] = system: cultured dorsal root ganglia (DRG) cells; type: cell-based, mouse
[7] = BHQ-OPh, previous unpublished work (Zhu & Dore)
[8] = Table 2.1, KMOPS buffer, 100 μM
[9] = Table 1.1, KMOPS buffer, 100 μM

Structure (SMILES): NCCc1c[nH]c2ccc(OCc3ccc4ccc(O)c(Br)c4n3)cc12 [BHQ-O-5HT]
- δu (two-photon uncaging action cross-section) ([1]; Table 1.1, KMOPS): 0.50 GM
- λmax [2, 9]: 368 nm
- ε (molar extinction coefficient) [2, 9]: 2,000 M^−1 cm^−1
- τdark (time constant for dark hydrolysis) ([3]; Table 1.1): 260 h
- change in amplitude of ictal spikes, before light ([5]; compound 1 mM added, no irradiation): No change
- change in amplitude of ictal spikes, after light flash ([5]; compound 1 mM, brief (~1 ms) flash of 365-nm light): immediate reduction in the amplitude of the ictal spikes
- Sensitivity Qu × ε ([4]; Table 1.1): 600 M⁻¹ cm⁻¹
- Qu (uncaging quantum efficiency) ([4]; Table 1.1): 0.30

Structure (SMILES): CCCCCCCCC(=O)NCc1ccc(O)c(OC)c1 [VNA, N-vanillyl nonanamide, reference compound]
- electrophysiological response (extracellular potential) on topical application ([6]; single DRG neuron, via TRPV1 channels): strong and immediate electrophysiological response

Structure (SMILES): CCCCCCCCC(=O)NCc1ccc(OCc2ccc3ccc(O)c(Br)c3n2)c(OC)c1 [BHQ-VNA]
- electrophysiological response after light pulse [6]: immediate potential change is observed that is indistinguishable from the VNA trace
- electrophysiological response, bath applied, without light [6]: does not have any affect

Further lines, results first:

- 2-photon photolysis uncaging action cross section δu ([1]; pH 7.2 KMOPS): 0.56 GM
- ε [2, 7]: 3200 M⁻¹ cm⁻¹
- λmax [2, 7]: 369
- time constant for hydrolysis in the dark τdark ([3]; simulated physiological conditions, dark): 95 h
- quantum efficiency Qu ([4]; 1-photon photolysis at 365 nm, pH 7.2 KMOPS): 0.19
Structure (SMILES): Oc1ccc2ccc(COc3ccccc3)nc2c1Br [BHQ-OPh]

- δu (two-photon uncaging action cross-section) ([1]; Table 2.1, KMOPS): 0.61 GM
- λmax [2, 8]: 368 nm and 370 nm
- ε (molar extinction coefficient) [2, 8]: 2700 M⁻¹ cm⁻¹
- τdark (time constant for dark hydrolysis) ([3]; Table 2.1): 140 h
- Sensitivity Qu × ε ([4]; Table 2.1): 486 M⁻¹ cm⁻¹
- Qu (uncaging quantum efficiency) ([4]; Table 2.1): 0.18
Structure (SMILES): COc1cc(CNC(C)=O)ccc1OCc1ccc2ccc(O)c(Br)c2n1 [BHQ-VAA]

- δu (two-photon uncaging action cross-section) ([1]; Table 1.1, KMOPS): 0.42 GM
- λmax [2, 9]: 370 nm
- ε (molar extinction coefficient) [2, 9]: 2,100 M^−1 cm^−1
- τdark (time constant for dark hydrolysis) ([3]; Table 1.1): 300 h
- Sensitivity Qu × ε ([4]; Table 1.1): 210 M⁻¹ cm⁻¹
- Qu (uncaging quantum efficiency) ([4]; Table 1.1): 0.10
Structure (SMILES): O=C(NCCc1c[nH]c2ccc(O)cc12)OCc1ccc2ccc(O)c(Br)c2n1 [BHQ-N-5HT]
